Patent publication US4375542A, “Kijanimicin antibiotics and derivatives thereof” (Schering Corporation, priority 1980, dated 1983)

Experiments:
[1] = tested on: Peptococcus species; assay: in vitro activity against anaerobic bacteria: Peptococcus species; format: cell-based
From the text: (§1) Kijanimicin is also active against strains of anaerobic bacteria other than P. acnes. For example, when tested in vitro, the antibiotic was active against strains of Peptococcus species, Peptostreptococcus and E. lentum.

[2] = tested on: Peptostreptococcus; assay: in vitro activity against anaerobic bacteria: Peptostreptococcus; format: cell-based
From the text: as §1

[3] = tested on: E. lentum; assay: in vitro activity against anaerobic bacteria: E. lentum; format: cell-based
From the text: as §1

[4] = tested on: P-388 leukemia; assay: in vivo anti-tumor test, P-388 leukemia in mice (standard National Cancer Institute test)
Procedure: Anti-tumor activity was determined by the standard National Cancer Institute test which was published in Cancer Chemothr. Rep. 3:1-103 1972.
In the test 10^6 cells per mouse of P-388 leukemia (bleomycin sensitive) is administered intraperitoneally on day 1. The test compound is serially diluted (1/10, 1/100, etc.) and each dilution is administered to a mouse from day 1 to day 9. Animals dying on or before day 5 are listed as toxic deaths. Controls are run using bleomycin and olivomycin A. The results are calculated by the formula in which MST=medium survival time in days;
MST ^T /C=MST-T/MST-Control×100.

[5] = tested on: Plasmodium berghei; assay: antimalarial activity in infected CF1 mice; format: in vivo, Plasmodium berghei; CF1 mice; settings: therapy commenced one day after infection
[6] = anti-inflammatory activity, art recognized test procedures
[7] = acute toxicity (LD50) and therapeutic index; format: in vivo
[8] = room temperature at pH 2-3

**Q.** With `COC(=O)N[C@H]1[C@@H](C)O[C@@H](O[C@H]2C/C=C(\C)[C@@H]3C=C[C@@H]4[C@@H](O[C@H]5C[C@@H](O[C@H]6CC(O[C@H]7C[C@H](O)[C@@H](O)[C@H](C)O7)C(O[C@@H]7C[C@@H](O)[C@@H](OC)[C@H](C)O7)[C@H](C)O6)[C@@H](O)[C@H](C)O5)[C@@H](C)C[C@H](C)[C@H]4[C@]3(C)/C(O)=C3\C(=O)O[C@]4(C[C@@H](C)C(CO)=C[C@H]4/C=C/2C)C3=O)C[C@]1(C)[N+](=O)[O-]` (some centres unmarked) [Kijanimicin] as the molecule, how does the “in vitro activity against Peptococcus species” value [1] read?
**A.** active

**Q.** What about the “in vitro activity against Peptostreptococcus” value [2] of the same molecule?
**A.** active

**Q.** What about the “in vitro activity against E. lentum” value [3] of the same molecule?
**A.** active

**Q.** And the “anti-tumor activity against P-388 leukemia” value [4]?
**A.** exhibits anti-tumor activity

**Q.** What about the “antiparasitic activity, Plasmodium berghei” value [5] of the same molecule?
**A.** exhibits antiparasitic activity

**Q.** And the anti-inflammatory effect [6]?
**A.** exhibits an anti-inflammatory effect

**Q.** What about the “oral LD50” value ([7]; oral) of the same molecule?
**A.** greater than 1000 mg/kg

**Q.** And the “therapeutic index (LD50 / PD50), oral” value ([7]; oral)?
**A.** about 10

**Q.** What about the “subcutaneous LD50” value ([7]; subcutaneous) of the same molecule?
**A.** greater than 1000 mg/kg

**Q.** What about the “therapeutic index (LD50 / PD50), subcutaneous” value ([7]; subcutaneous) of the same molecule?
**A.** about 10

**Q.** What about the loss of activity [8] of the same molecule?
**A.** loses activity rapidly
